The results in this text go back to ChEMBL document CHEMBL3352267, “The design and implementation of a generic lipopeptide scanning platform to enable the identification of 'locally acting' agonists for the apelin receptor” (Bioorg Med Chem Lett, 2014).

What all share (type): functional, cell-based
Assay [1] has as its target Sphingosine 1-phosphate receptor Edg-5/Sphingosine 1-phosphate receptor Edg-3 (Homo sapiens) (UniProt O95136+Q99500). Description: Agonist activity at S1P2/3 receptor in HEK293 cells assessed as inhibition of forskolin-induced cAMP level after 1 hr by alphascreen immunoassay.
For assay [2], the target named is T1, Apelin receptor (Homo sapiens, UniProt P35414).
T1 sequence (P35414 whole entry): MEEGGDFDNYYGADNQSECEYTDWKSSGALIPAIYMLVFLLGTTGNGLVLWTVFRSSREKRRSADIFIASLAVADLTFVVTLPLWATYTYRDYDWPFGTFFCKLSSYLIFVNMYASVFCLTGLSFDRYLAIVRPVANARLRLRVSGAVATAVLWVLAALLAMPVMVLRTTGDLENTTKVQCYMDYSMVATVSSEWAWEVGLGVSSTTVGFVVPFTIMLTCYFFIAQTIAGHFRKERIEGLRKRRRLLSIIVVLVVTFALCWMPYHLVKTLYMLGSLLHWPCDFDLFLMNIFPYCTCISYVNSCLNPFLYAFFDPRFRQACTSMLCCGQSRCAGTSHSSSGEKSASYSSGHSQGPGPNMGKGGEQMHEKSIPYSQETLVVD
Briefly: Agonist activity at APJ receptor in HEK293 cells assessed as inhibition of forskolin-induced cAMP level incubated for 5 mins prior to forskolin challenge measured after 30 mins by TR-FRET assay.

The target in assay [3] is T2, Apelin receptor (Homo sapiens) (UniProt P35414).
T2 sequence (whole entry): T1 sequence (P35414 whole entry)
Description: Agonist activity at APJ receptor in HEK293 cells assessed as inhibition of forskolin-induced cAMP level incubated for 5 mins prior to forskolin challenge measured after 30 mins by TR-FRET assay relative to [pyr1]-apelin-13. (In general: cAMP levels reflect the balance of adenylyl cyclase and phosphodiesterase activity.)

The source made the active and inactive calls. The calls are words filed in the database; no cut-off is given here. Residues, ends and D or L forms follow the SMILES beside them. *: point of attachment. Palmitoyl = CCCCCCCCCCCCCCCC(=O)*

With `CCCCCCCCCCCCC/C=C/[C@@H](O)[C@@H](N)COP(=O)(O)O`, the outcome in assay [1] was Active. As usually defined, the EC50 is the midpoint of the concentration-response curve. For the molecule `CCCCCCCCCCCCCCCC(=O)N1CCC[C@H]1C(=O)N[C@@H](CC(C)C)C(=O)N[C@@H](Cc1c[nH]c2ccccc12)C(=O)N[C@@H](C)C(=O)N[C@H](C(=O)N[C@@H](Cc1ccc(O)cc1)C(=O)N[C@H](C(=O)N[C@@H](Cc1ccc(O)cc1)C(=O)N[C@@H](CCCNC(=N)N)C(N)=O)[C@@H](C)O)[C@@H](C)O` (Palmitoyl-PLWATYTYR-NH2), in assay [2], the 50% effective concentration (EC50) is more than 30000 nM. Consider `CCCCCCCCCCCCCCCC(=O)N[C@H](C(=O)N[C@@H](C)C(=O)N[C@@H](CC(C)C)C(=O)N1CCC[C@H]1C(=O)N[C@@H](CC(C)C)C(=O)N[C@@H](Cc1c[nH]c2ccccc12)C(=O)N[C@@H](C)C(=O)N[C@H](C(=O)N[C@@H](Cc1ccc(O)cc1)C(=O)N[C@H](C(=O)N[C@@H](Cc1ccc(O)cc1)C(=O)N[C@@H](CCCNC(=N)N)C(N)=O)[C@@H](C)O)[C@@H](C)O)C(C)C` (Palmitoyl-VALPLWATYTYR-NH2), for which the concentration for a half-maximal effect (EC50) in assay [2] came to 41.3 nM. Besides, the %max in assay [3] is 45%. For the molecule `CCCCCCCCCCCCCCCC(=O)N[C@H](C(=O)N[C@H](C(=O)N[C@@H](C)C(=O)N1CCC[C@H]1C(=O)N[C@@H](CC(C)C)C(=O)N[C@@H](Cc1c[nH]c2ccccc12)C(=O)N[C@@H](C)C(=O)N[C@H](C(=O)N[C@@H](Cc1ccc(O)cc1)C(=O)N[C@H](C(=O)N[C@@H](Cc1ccc(O)cc1)C(=O)N[C@@H](CCCNC(=N)N)C(N)=O)[C@@H](C)O)[C@@H](C)O)[C@@H](C)O)C(C)C` (Palmitoyl-VTAPLWATYTYR-NH2), in assay [2], the EC50 is more than 30000 nM.

`CCCCCCCCCCCCCCCC(=O)N[C@H](C(=O)N[C@H](C(=O)N[C@@H](CC(C)C)C(=O)N[C@@H](C)C(=O)N[C@@H](CC(C)C)C(=O)N[C@@H](Cc1c[nH]c2ccccc12)C(=O)N[C@@H](C)C(=O)N[C@H](C(=O)N[C@@H](Cc1ccc(O)cc1)C(=O)N[C@H](C(=O)N[C@@H](Cc1ccc(O)cc1)C(=O)N[C@@H](CCCNC(=N)N)C(N)=O)[C@@H](C)O)[C@@H](C)O)[C@@H](C)O)C(C)C` (Palmitoyl-VTLALWATYTYR-NH2): in assay [2], the EC50 was more than 30000 nM.

For the molecule `CCCCCCCCCCCCCCCC(=O)N[C@H](C(=O)N[C@H](C(=O)N[C@@H](CC(C)C)C(=O)N1CCC[C@H]1C(=O)N[C@@H](C)C(=O)N[C@@H](Cc1c[nH]c2ccccc12)C(=O)N[C@@H](C)C(=O)N[C@H](C(=O)N[C@@H](Cc1ccc(O)cc1)C(=O)N[C@H](C(=O)N[C@@H](Cc1ccc(O)cc1)C(=O)N[C@@H](CCCNC(=N)N)C(N)=O)[C@@H](C)O)[C@@H](C)O)[C@@H](C)O)C(C)C` (Palmitoyl-VTLPAWATYTYR-NH2), the EC50 in assay [2] was more than 30000 nM. In the case of `CCCCCCCCCCCCCCCC(=O)N[C@H](C(=O)N[C@H](C(=O)N[C@@H](CC(C)C)C(=O)N1CCC[C@H]1C(=O)N[C@@H](CC(C)C)C(=O)N[C@@H](C)C(=O)N[C@@H](C)C(=O)N[C@H](C(=O)N[C@@H](Cc1ccc(O)cc1)C(=O)N[C@H](C(=O)N[C@@H](Cc1ccc(O)cc1)C(=O)N[C@@H](CCCNC(=N)N)C(N)=O)[C@@H](C)O)[C@@H](C)O)[C@@H](C)O)C(C)C` (Palmitoyl-VTLPLAATYTYR-NH2), the EC50 in assay [2] is more than 30000 nM. Take `CCCCCCCCCCCCCCCC(=O)N[C@H](C(=O)N[C@H](C(=O)N[C@@H](CC(C)C)C(=O)N1CCC[C@H]1C(=O)N[C@@H](CC(C)C)C(=O)N[C@@H](Cc1c[nH]c2ccccc12)C(=O)N[C@@H](C)C(=O)N[C@@H](C)C(=O)N[C@@H](Cc1ccc(O)cc1)C(=O)N[C@H](C(=O)N[C@@H](Cc1ccc(O)cc1)C(=O)N[C@@H](CCCNC(=N)N)C(N)=O)[C@@H](C)O)[C@@H](C)O)C(C)C` (Palmitoyl-VTLPLWAAYTYR-NH2): in assay [2], the half-maximal effective concentration (EC50) was 21.5 nM. For the same molecule, in assay [3], the %max came to 53.6%. In the case of `CCCCCCCCCCCCCCCC(=O)N[C@H](C(=O)N[C@H](C(=O)N[C@@H](CC(C)C)C(=O)N1CCC[C@H]1C(=O)N[C@@H](CC(C)C)C(=O)N[C@@H](Cc1c[nH]c2ccccc12)C(=O)N[C@@H](C)C(=O)N[C@H](C(N)=O)[C@@H](C)O)[C@@H](C)O)C(C)C` (Palmitoyl-VTLPLWAT-NH2), the EC50 in assay [2] was more than 30000 nM. As for `CCCCCCCCCCCCCCCC(=O)N[C@H](C(=O)N[C@H](C(=O)N[C@@H](CC(C)C)C(=O)N1CCC[C@H]1C(=O)N[C@@H](CC(C)C)C(=O)N[C@@H](Cc1c[nH]c2ccccc12)C(=O)N[C@@H](C)C(=O)N[C@H](C(=O)N[C@@H](C)C(=O)N[C@H](C(=O)N[C@@H](Cc1ccc(O)cc1)C(=O)N[C@@H](CCCNC(=N)N)C(N)=O)[C@@H](C)O)[C@@H](C)O)[C@@H](C)O)C(C)C` (Palmitoyl-VTLPLWATATYR-NH2), in assay [2], the EC50 came out at 95.7 nM. Moreover, the %max in assay [3] was 84.3%. For the molecule `CCCCCCCCCCCCCCCC(=O)N[C@H](C(=O)N[C@H](C(=O)N[C@@H](CC(C)C)C(=O)N1CCC[C@H]1C(=O)N[C@@H](CC(C)C)C(=O)N[C@@H](Cc1c[nH]c2ccccc12)C(=O)N[C@@H](C)C(=O)N[C@H](C(=O)N[C@@H](Cc1ccc(O)cc1)C(=O)N[C@@H](C)C(=O)N[C@@H](Cc1ccc(O)cc1)C(=O)N[C@@H](CCCNC(=N)N)C(N)=O)[C@@H](C)O)[C@@H](C)O)C(C)C` (Palmitoyl-VTLPLWATYAYR-NH2), in assay [2], the EC50 is more than 30000 nM. With `CCCCCCCCCCCCCCCC(=O)N[C@H](C(=O)N[C@H](C(=O)N[C@@H](CC(C)C)C(=O)N1CCC[C@H]1C(=O)N[C@@H](CC(C)C)C(=O)N[C@@H](Cc1c[nH]c2ccccc12)C(=O)N[C@@H](C)C(=O)N[C@H](C(=O)N[C@@H](Cc1ccc(O)cc1)C(=O)N[C@H](C(=O)N[C@@H](C)C(=O)N[C@@H](CCCNC(=N)N)C(N)=O)[C@@H](C)O)[C@@H](C)O)[C@@H](C)O)C(C)C` (Palmitoyl-VTLPLWATYTAR-NH2), the EC50 in assay [2] turned out to be 2.7 nM. Moreover, the %max in assay [3] worked out at 62.5%.
